In patent US9296716B2, “Androgen receptor ligands” (THE PROVOST, FELLOWS, FOUNDATION SCHOLARS, & THE OTHER …, priority 2011, dated 2016):
Residue numbers refer to the chain shown, from its start. “Also recorded” adds a separate entry of the source. Where two headings read alike, the source gives them in different places.

Assays:
[1] = target: T1, AR LBP (AR-LBD and Fluormone complex) (Rattus norvegicus, UniProt P15207); test: Fluorescence polarization (PolarScreen) AR competitor assay; type: binding; conditions: for displacement of bound fluorescently-labelled ligand from the LBP: FP assay
T1 construct: purchased Invitrogen P3018
T1 sequence (P15207 651-882 limits assumed): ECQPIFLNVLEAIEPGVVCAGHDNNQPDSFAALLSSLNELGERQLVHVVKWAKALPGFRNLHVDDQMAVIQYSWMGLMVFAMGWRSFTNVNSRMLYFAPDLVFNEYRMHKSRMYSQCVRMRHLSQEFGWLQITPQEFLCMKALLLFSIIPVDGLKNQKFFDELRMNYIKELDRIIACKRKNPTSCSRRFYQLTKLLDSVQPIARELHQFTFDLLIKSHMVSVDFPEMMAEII
Text: The TR-FRET assay cannot differentiate between direct coactivator antagonists acting on the LBD surface and ‘classical’ AR antagonists which also functionally disrupt coactivator recruitment by displacing DHT from the ligand binding pocket.
(§1) Fluorescence polarization assays are susceptible by fluorescence interference/aggregation and light scattering issues by compounds present in the wells. This could lead to false positive or false negative hits. This problem is addressed in and the presence of false ‘hits’ can be determined by plotting the total fluorescence intensity of the assay versus the anisotropy for each compound.
(§2) To minimize the possibility of such false negative or positive reporting, the FP data was rigorously interrogated through examination of both auto-fluorescence and aggregation (FIG. 3). […] Diarylhydrazides are AR Potential Selective Coactivator Interaction Disruptors
PolarScreen Androgen Receptor Competitor Assay Kit Green (Invitrogen, cat no. P3018) was used to investigate the binding of the test compound to the LBP site, occupied by a high affinity ligand (Fluormone).
100× test compound solutions in DMSO were diluted in AR green buffer (Invitrogen) to achieve 2× concentrations and placed in a 384 well plate (Corning, cat no. 3576) with 40 μl volume capacity. AR-LBD was supplemented with 5 mM DTT to prevent protein degradation. AR-LBD and Fluormone (2×) mix are prepared separately and then added to each compound dilution to achieve a final concentration LBD-fluormone of 50 nM and 2 nM respectively. Plates were incubated protected from light for at least 4 hours. Controls included a maximum mP positive control, which consists of the AR-LBD and fluormone mix (2×), and a minimum mP control, containing only Fluormone (2×). A vehicle control was added to account for DMSO effect, and a blank control containing buffer only. Fluorescence polarization was measured with PHERAstar equipment (BMG LabTech) using an optic module with excitation at 485 nm and emission at 530 nm.

AR-LBD wt = target: T2, AR-LBD wt (Homo sapiens, UniProt P10275); test: Lanthascreen TR-FRET AR coactivator (D11-FxxLF) assay, AR-LBD wt; type: biochemical; conditions: for type of AR antagonism (full / partial): TR-FRET in agonist and antagonist mode; for IC50: TR-FRET, D11-FxxLF peptide, DHT = EC80
T2 sequence (P10275 669-900 limits assumed): T1 sequence (P15207 651-882 limits assumed)

[2] = target: T3, Glucocorticoid Receptor (GR) LBD (Homo sapiens, UniProt P04150); test: TR-FRET SRC1-4 coactivator recruitment assay, GR LBD; type: biochemical; conditions: Dexamethasone = EC80; for effect on SRC1-4 recruitment by GR LBD: 100 μM to 12.5 μM or single point 100 μM; for IC50: TR-FRET, ± SEM (n = 6), read-out: NR LBDs IC50 (μM) GR
T3 construct: purchased Invitrogen PV4683
T3 sequence (P04150 524-758 limits assumed): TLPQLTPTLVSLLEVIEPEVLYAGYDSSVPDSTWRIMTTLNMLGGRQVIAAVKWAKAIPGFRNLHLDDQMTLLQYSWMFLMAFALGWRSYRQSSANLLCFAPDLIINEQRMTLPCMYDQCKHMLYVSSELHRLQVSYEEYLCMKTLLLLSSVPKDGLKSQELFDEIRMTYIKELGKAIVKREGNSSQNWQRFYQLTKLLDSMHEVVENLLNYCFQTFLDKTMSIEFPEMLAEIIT
Experimental: (§3) Compound binding affinities for Progesterone Receptor (PR), Glucocorticoid Receptor (GR), Estrogen Receptor alpha and Estrogen Receptor beta were determined using TR-FRET (Table 2).
Dexamethasone bound receptor recruitment of the fluorescently labelled SCR1-4 coactivator was unimpaired at screening concentrations up to 100 μM for all the diarylhydrazides evaluated (FIG. 5).
(§4) Lanthascreen TR-FRET AR Coactivator Assay kit (Invitrogen, cat no. PV4381) was used to screen for potential coactivator disruptors.
(§5) TR FRET values were calculated at 10 flashes per well, using a delay time of 100 μs and integration time 200 μs as recommended by the Invitrogen assay guidelines. […] A serial dilution of compounds was firstly prepared in 100×DMSO (Sigma-Aldrich) starting from the maximum desired concentration to achieve a 12 point range concentration using 96-well polypropylene plates (Nalgene Nunc, Rochester, N.Y.). Each 100× solution was diluted to 2× concentration with TR-FRET co-regulator buffer A (Invitrogen proprietary buffer), yielding a final concentration of 1% DMSO in each well.
(§6) D11-FxxLF and Tb antibody were premixed in light protecting vials prior to use. A final concentration of DTT 5 mM was used in the assay buffer in order to prevent protein degradation. All plates (agonist and antagonist mode) were incubated between 2 and 4 hours at room temperature protected from light prior to TR-FRET measurement. […] Data was fitted using the sigmoidal dose response (variable slope) available from Graphpad Prism 5. Y=Bottom+(Top-Bottom)/(1+10^((Log IC50−X)*HillSlope))
(§7) The same procedure was used for AR T877A (Invitrogen cat no. PV4667), PR (Invitrogen cat no. PV4666), ER-α (Invitrogen cat no. PV4544), ER-β (Invitrogen cat no. PV4541) and GR (Invitrogen cat no. PV4683). The assay was adapted to exclude possible non-specific aggregation mechanism of inhibition by adding very low concentration of detergent Triton X-100 (0.001%) to the assay buffer following the Shoichet review guidelines [Shoichet BK (2006) Screening in a spirit haunted world. Drug Discov Today 11:607-615].

AR-LBD T877A mutant = target: T4, AR-LBD T877A mutant (Homo sapiens, UniProt P10275, T878A); test: TR-FRET coactivator assay, AR T877A mutant; type: biochemical; conditions: D11-FxxLF peptide, DHT = EC80
T4 construct: purchased Invitrogen PV4667
T4 sequence (P10275 669-900 T878A): T1 sequence (P15207 651-882 limits assumed) with T210A

[3] = target: T5, Progesterone Receptor (PR) LBD (Homo sapiens, UniProt P06401); test: TR-FRET SRC1-4 coactivator recruitment assay, PR LBD; type: biochemical; conditions: Progesterone = EC80; for effect on PR recruitment of fluorescent labelled SRC1-4: 100 μM to 45 nM; for IC50: TR-FRET, ± SEM (n = 6), read-out: NR LBDs IC50 (μM) PR
T5 construct: purchased Invitrogen PV4666
T5 sequence (P06401 679-913 limits assumed): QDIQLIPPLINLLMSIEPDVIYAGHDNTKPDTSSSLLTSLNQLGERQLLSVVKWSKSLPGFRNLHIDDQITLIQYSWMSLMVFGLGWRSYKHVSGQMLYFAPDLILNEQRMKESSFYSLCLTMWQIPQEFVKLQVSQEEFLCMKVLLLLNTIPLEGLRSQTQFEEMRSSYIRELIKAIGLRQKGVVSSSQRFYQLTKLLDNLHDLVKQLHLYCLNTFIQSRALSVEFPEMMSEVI
Experimental: as §3, §4, §5, §6, §7

[4] = target: T6, Estrogen Receptor alpha (ER-α) LBD (Homo sapiens, UniProt P03372); test: TR-FRET PGC1-α coactivator recruitment assay, ERα LBD; type: biochemical; conditions: Estradiol = EC80; for effect on ERα recruitment of fluorescent labelled PGC1-α: 100 μM to 45 nM; for IC50: TR-FRET, ± SEM (n = 6), read-out: NR LBDs IC50 (μM) ER-α
T6 sequence (P03372 311-547 limits assumed): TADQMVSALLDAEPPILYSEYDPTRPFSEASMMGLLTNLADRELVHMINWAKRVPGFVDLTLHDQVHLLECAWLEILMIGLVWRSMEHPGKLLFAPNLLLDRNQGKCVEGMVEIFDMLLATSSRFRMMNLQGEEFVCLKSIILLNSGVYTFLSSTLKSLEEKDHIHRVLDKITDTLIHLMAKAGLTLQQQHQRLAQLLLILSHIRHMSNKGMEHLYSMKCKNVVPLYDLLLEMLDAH
Experimental: as §3
(§8) Selectivity of the diarylhydrazide scaffold for the AR was determined through a TR-FRET assay in ERα (FIGS. 8A & 9A1) and ERR (FIGS. 8B & 9A2). […] The non-LBP nature of this inhibition was confirmed by a FP assay (FIGS. 9C, 9B1 & 9B2).
as §4, §5, §6, §7

[5] = target: Estrogen Receptor beta (ER-β) LBD (Homo sapiens, UniProt Q92731); test: TR-FRET PGC1-α coactivator recruitment assay, ERβ LBD; type: biochemical; conditions: Estradiol = EC80; for effect on ERβ recruitment of fluorescent labelled PGC1-α: 100 μM to 45 nM; for IC50: TR-FRET, ± SEM (n = 6), read-out: NR LBDs IC50 (μM) ER-β
Chain of Estrogen Receptor beta (ER-β) LBD (Q92731 264-498 limits assumed): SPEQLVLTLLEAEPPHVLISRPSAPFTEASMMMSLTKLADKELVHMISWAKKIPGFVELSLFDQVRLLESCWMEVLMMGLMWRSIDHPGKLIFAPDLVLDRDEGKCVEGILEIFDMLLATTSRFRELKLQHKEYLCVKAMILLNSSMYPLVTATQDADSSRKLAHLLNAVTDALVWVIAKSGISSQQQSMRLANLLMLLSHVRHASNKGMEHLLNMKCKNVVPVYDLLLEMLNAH
Experimental: as §3, §8, §4, §5, §6, §7

[6] = Solubility in FP assay buffer (fluorescence interference/aggregation check); type: physicochemical; conditions: high concentration (50 μM)
Text: as §1, §2

LNCaP cells = test: LNCaP cell proliferation assay (androgen deprived, AlamarBlue); type: cell-based; conditions: 10^−10M, 0.1% DMSO, steroid depleted conditions
Experimental: To determine the optimal DHT concentration and length of treatment required for cell proliferation assays, we tested a range of DHT concentrations in 0.1% DMSO for 5 or 7 days in LNCaP cells cultured in FBS stripped phenol red free media. […] Media and treatments were replaced every second incubation day (FIGS. 12 A and B)
For cell viability (end point) assays LNCaP, PC-3 and PWR-1E cells were seeded at 2.5*10^4/ml density in 200 μl volume of a 96-well plate in triplicate and incubated for 24 hours prior testing. Test compounds were included at different concentrations to achieve a final concentration of 0.5% DMSO in each well. Effect of 0.5% DMSO on cell-viability was also evaluated. Cell viability was assessed after 24 hours of treatment using 10% Alamar Blue reagent (Invitrogen) for each well. Cell viability was monitored by the reduction of resazurin, a blue, cell-permeable and non-toxic compound, to resorufin, a red and highly fluorescent product. Viable cells continuously convert resazurin to resorufin, increasing the overall colour and fluorescence of the media surrounding cells. Fluorescence intensity can be quantitatively determined with a fluorescence microplate reader at excitation/emission 544 nm/590 nm (Spectramax Gemini). For hormone dependent cell proliferation assays in androgen deprived LNCaP cells, cells were seeded at 2*10^4 cells/ml in a 24-well plate in triplicate. Cells were plated in phenol red free RPMI Glutamax (Invitrogen) supplemented with 10% charcoal-stripped FBS to deplete endogenous steroids 48 hours prior the assay as described in previous reports. […] Cells were treated with different concentrations of test compounds with or without 0.1 nM DHT to achieve a final concentration of 0.1% DMSO in each well. A control for the vehicle was included to ensure no effect on viability could be detected. Media and treatments were replaced every second day, after washing the cells twice with 1×PBS. Supernatants were collected after five days for secreted PSA levels evaluation and cell proliferation was assessed for the same plate using Alamar Blue in order to exclude non-specific effects due to toxicity issues.

SMILES | displacement of bound fluorescently-labelled ligand from the LBP [1] | type of AR antagonism (full / partial) (AR-LBD wt) | effect on SRC1-4 recruitment by GR LBD [2] | IC50 [2] [µM] | IC50 (AR-LBD T877A mutant) [µM] | effect on PR recruitment of fluorescent labelled SRC1-4 [3] | IC50 [3] [µM] | effect on ERα recruitment of fluorescent labelled PGC1-α [4] | IC50 [4] [µM] | effect on ERβ recruitment of fluorescent labelled PGC1-α [5] | IC50 [5] [µM] | IC50 (AR-LBD wt; read-out: AR (wt)) [µM] | IC50 (AR-LBD wt; read-out: Activity (AR wt TR-FRET)) [µM] | inhibition at 1 µM ([1]; FP, 1 μM, read-out: inhibition of the LBD-F complex) [%] | solubility in the chosen assay buffer [6] | increase of LNCaP cell proliferation (LNCaP cells) [fold]
COc1cc(/C=N/NC(=O)c2cc3c(ccc4ccccc43)o2)cc(I)c1O [MDG15] | inability to displace | full AR antagonists | – | – | – | – | – | – | – | – | – | – | – | – | – | –
O=C(N/N=C/c1cc(Br)ccc1O)c1cc2ccccc2cc1O [MDG292] | – | full AR antagonism; also recorded: full AR antagonists | do not affect | > 100 | 12.4 ± 2.2 | partially inhibit | 22.5 ± 5.4 | partially inhibit | > 100 | partially inhibit | > 100 | 13.3 ± 3.1 | 13.3 ± 3.1 | – | – | –
O=C(N/N=C/c1cc2ccccc2cc1O)c1cc2ccccc2cc1O [MDG483] | – | full AR antagonists | do not affect | > 100 | – | partially inhibit | 8.4 ± 1.4 | partially inhibit | 10.2 ± 3 | partially inhibit | 12 ± 0.4 | – | – | ~0 | solubility issues | –
O=C(N/N=C/c1cccc(O)c1O)c1cc2ccccc2cc1O [MDG173] | inability to displace | full AR antagonists | – | – | – | – | – | – | – | – | – | – | – | – | – | –
C[C@]12CCC(=O)C[C@@H]1CC[C@@H]1[C@@H]2CC[C@]2(C)[C@@H](O)CC[C@@H]12 [DHT, dihydrotestosterone, reference compound] | – | – | – | – | – | – | – | – | – | – | – | – | – | – | – | 2
